Results published in patent US10227347B2, “Purinyl-N-hydroxyl pyrimidine formamide derivative, preparation methods and uses thereof” (Guizhou Bailing Group Pharmaceutical CO., LTD., priority 2015, dated 2019).
Like-named read-outs stand apart in the source and are kept apart here.

Key:
[1] = test system: Ramos cells (B-cell lymphoma); test: Proliferation inhibition, Ramos (cck-8); format: cell-based; settings: Homo sapiens, 96 h incubation
Source text: (§1) Calculating the value of IC50 as per the formula: Y=background data+(top data−background data)/(1+10^((Log IC50−X)*rate of curve)). Where, Y refers to the inhibition ratio (%) and X refers to the compound concentration.

[2] = target: T1, HDAC8 (Homo sapiens, UniProt Q9BY41); test: HDAC8 enzyme inhibition (Lys-Ac-AMC); format: biochemical; settings: Table 4, graded
T1 construct: purchased BPS Bioscience 50008
T1 sequence (Q9BY41 1-377): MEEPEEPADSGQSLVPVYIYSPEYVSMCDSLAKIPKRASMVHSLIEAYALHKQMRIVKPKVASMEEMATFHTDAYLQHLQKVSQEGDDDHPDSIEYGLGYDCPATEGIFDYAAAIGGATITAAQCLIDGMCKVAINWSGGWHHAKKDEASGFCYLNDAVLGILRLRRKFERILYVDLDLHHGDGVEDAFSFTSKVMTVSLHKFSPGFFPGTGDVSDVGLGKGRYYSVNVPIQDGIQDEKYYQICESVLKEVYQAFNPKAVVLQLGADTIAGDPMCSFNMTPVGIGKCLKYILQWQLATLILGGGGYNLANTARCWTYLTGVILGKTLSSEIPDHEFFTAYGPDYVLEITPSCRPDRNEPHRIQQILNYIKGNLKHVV
Method: (§2) Determining the inhibition capability of HDAC through the substrate method of fluorophore coupled acetylized peptide fragment (Lys-Ac-AMC). HDAC2-11 proteins of subtypes are purchased from BPS Bioscience Company with the Art. […] The reaction buffer system is a modified Tris buffer (pH7.0). The small molecule compounds are prepared and dissolved with 100% DMSO. […] Adding the compound into the reaction wells of the 384 well plate at the designed concentration, then adding 15 μL HDAC enzyme solution into the reaction wells (adding 15 μL blank buffer into the control well 0) for incubation under ambient temperature for 15 min; then adding 10 μL substrate solution to start reaction.
(§3) Analyzing the result data with the software GraphPad Prism and calculating the value of IC50 as per the formula: Y=background data+(top data−background data)/(1+10^((Log IC50−X)*rate of curve)). Where, Y refers to the inhibition ratio (%) and X refers to the compound concentration.

[3] = test system: RPMI-8226 cells (multiple myeloma); test: Proliferation inhibition, RPMI-8226 (cck-8); format: cell-based; settings: Homo sapiens, 96 h incubation
Source text: as §1

[4] = target: T2, HDAC10 (Homo sapiens, UniProt Q969S8); test: HDAC10 enzyme inhibition (Lys-Ac-AMC); format: biochemical; settings: Table 4, graded
T2 construct: purchased BPS Bioscience 50060
T2 sequence (Q969S8 1-669): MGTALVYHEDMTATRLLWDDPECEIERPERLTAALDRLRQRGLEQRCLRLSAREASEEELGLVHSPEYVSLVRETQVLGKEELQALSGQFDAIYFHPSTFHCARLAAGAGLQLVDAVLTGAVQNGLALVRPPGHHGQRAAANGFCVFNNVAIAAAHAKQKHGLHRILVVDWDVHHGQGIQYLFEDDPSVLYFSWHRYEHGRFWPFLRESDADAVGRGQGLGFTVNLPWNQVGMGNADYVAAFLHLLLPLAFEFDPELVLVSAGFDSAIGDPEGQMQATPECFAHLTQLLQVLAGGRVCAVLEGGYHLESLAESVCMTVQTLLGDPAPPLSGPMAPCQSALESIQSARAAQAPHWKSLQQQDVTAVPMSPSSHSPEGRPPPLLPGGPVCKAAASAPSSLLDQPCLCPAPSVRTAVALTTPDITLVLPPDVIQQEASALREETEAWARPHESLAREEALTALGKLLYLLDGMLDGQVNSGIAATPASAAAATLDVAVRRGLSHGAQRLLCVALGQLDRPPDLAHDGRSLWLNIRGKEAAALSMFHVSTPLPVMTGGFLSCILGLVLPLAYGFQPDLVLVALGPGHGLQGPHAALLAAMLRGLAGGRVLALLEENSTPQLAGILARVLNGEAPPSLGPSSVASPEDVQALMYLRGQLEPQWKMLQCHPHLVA
Method: as §2, §3

[5] = test system: MV4-11 cells (acute myeloid leukemia); test: Cell proliferation inhibition, MV4-11 (cck-8); format: cell-based; settings: Homo sapiens
Procedure, shortened: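 Cells seeded at 2000-3000/well; adherent lines dosed after attachment, then 96 h incubation with compound. Viability read by MTT for solid-tumour lines (HCT116, A2780s) and CCK-8 for MV4-11; IC50 from four-parameter logistic fit of inhibition ratio versus concentration.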

[6] = 96 h incubation, read-out: Proliferation IC50, Acute myeloid leukemia MV4-11

SMILES	IC50 [1]	IC50 [2]	IC50 [3]	IC50 [4]	IC50 [5, 6]	IC50 ([5]; read-out: IC50 to proliferation of MV4-11 cells)
COc1ccc(-c2nc(N3CCOCC3)c3nc(CN(C)c4ncc(C(=O)NO)cn4)n(C)c3n2)cn1 [CLJ-1, 2-(((2-(6-methoxypyridine-3-yl)-9-methyl-6-morpholine-9H-purine-8-yl))methyl(methyl)amino)-N-hydroxyl pyrimidine-5-formamide]	0.1 to 1 nM	100 to 1000 nM	1 to 10 nM	1 to 100 nM	0.1 to 10 nM	–
CN(Cc1nc2c(N3CCOCC3)nc(-c3cnc(N)nc3)nc2n1C)c1ncc(C(=O)NO)cn1 [CLJ-11, 2-(((2-(2-aminopyrimidine-5-yl)-9-methyl-6-morpholine-9H-purine-8-yl))methyl(methyl)amino)-N-hydroxyl pyrimidine-5-formamide]	10 to 100 nM	1 to 100 nM	10 to 100 nM	1 to 100 nM	0.1 to 10 nM	–
COc1ccc(-c2nc(N3CCOCC3)c3nc(CN(C)c4ncc(C(=O)NO)cn4)n(C)c3n2)cc1 [CLJ-29, 2-(((2-(4-methoxyphenyl)-9-methyl-6-morpholine-9H-purine-8-yl))methyl(methyl)amino)-N-hydroxyl pyrimidine-5-formamide]	1 to 10 nM	1 to 100 nM	0.1 to 1 nM	1 to 100 nM	0.1 to 10 nM	0.1 to 10 nM
CN(Cc1nc2c(N3CCOCC3)nc(-c3ccc(N)cc3)nc2n1C)c1ncc(C(=O)NO)cn1 [CLJ-44]	1 to 10 nM	1 to 100 nM	0.1 to 1 nM	1 to 100 nM	0.1 to 10 nM	–
Cc1[nH]c2ccccc2c1CCNCc1ccc(/C=C/C(=O)NO)cc1 [LBH589, panobinostat, reference compound]	0.1 to 1 nM	–	1 to 10 nM	–	0.1 to 10 nM	–
